From PMC8626775, “Anti-schistosomal activities of quinoxaline-containing compounds: From hit identification to lead optimisation” (European Journal of Medicinal Chemistry, 2021)
Where two headings read alike, the source gives them in different places.

Legend:
S. mansoni schistosomula = S. mansoni schistosomula high-throughput phenotype and motility screen (Roboworm), 72 h; assay type: cell-based, Schistosoma mansoni
In short: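 Newly transformed schistosomula (S. mansoni PR-1, mechanically transformed cercariae), 120 per well, exposed to compounds at a single concentration or two-fold titrations for 72 h at 37 °C, 5% CO2.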

[1] = HepG2 MTT cytotoxicity assay; settings: human, HepG2 cells
Description: (§1) Initially the cells were handled under sterile conditions and grown at 37 °C in a humidified atmosphere containing 5% CO2. Cytotoxicity was evaluated by way of a 3-(4, 5- dimethylthiazol-2-yl)-2,5-diphenyl tetrazolium bromide (MTT) assay as previously described. The cells were counted in a dual chamber counting slide using the BIORAD TC-10 Automated cell counter, seeded in a 96-well plate (Fisher Scientific, Loughborough, UK) at a density of 2 × 10^4 cells/well and incubated in an atmosphere of 5% CO2 at 37 °C. […] The absorbance readings (at 570 nm) of the soluble formazan crystals were recorded using PolarStar Omega plate reader (BMG-Labtech). […] The latter was used to calculate the selectivity index (SI) of the compounds presented herein.

HepG2 cells = assay: HepG2 MTT cytotoxicity assay; settings: for CC50: Table 2, MTT
Description: as §1

[2] = tested on: Juvenile S. mansoni worms; assay: S. mansoni juvenile worm screen (motility score, propidium iodide uptake), 72 h; assay type: cell-based, Schistosoma mansoni; settings: juvenile worms, positive controls at 15 μM, Fig. S4
Text: Mice (Mus musculus HsdOLa:TO - Tuck Ordinary; Envigo, UK) were used for the mammalian-specific propagation of the S. mansoni life cycle. Experimental animals were infected with 4000 or 180 S. mansoni cercariae/mouse and perfused three- or seven-weeks post-infection to obtain S. mansoni juvenile or adult worms, respectively. Preparation steps following perfusion have been described previously. Briefly, the parasite material was washed three times with pre-warmed adult worm media (DMEM (Gibco, Paisley, UK) supplemented with 10% (v/v) Fetal Calf Serum (FCS, Gibco, Paisley, UK), 1% (v/v) L-glutamine (Gibco, Paisley, UK) and an antibiotic mixture (150 Units/ml penicillin and 150 μg/ml streptomycin; Gibco, UK)) to remove residual host contamination and incubated in a humidified environment containing 5% CO2 at 37 °C for at least 1 h.
Juvenile worms were distributed in a 96-well tissue culture plate (n = 20–25 individuals/well) containing 200 μl/well. Compounds were added to each treatment well at a concentration range of 10–0.156 μM. Negative (1.25% DMSO) and positive (15 μM PZQ and 15 μM AUR in 1.25% DMSO) controls were also included in each drug screen. Treated juvenile worms were incubated for 72 h in a humidified environment containing 5% CO2 at 37 °C. Compound-induced phenotype and motility effects were quantified using an adapted version of the WHO-TDR scoring system (in summary: 0 = dead, 1 = movement of the suckers only and slight contraction of the body, 2 = movement at the anterior and posterior regions only, 3 = full body movement but sluggish and 4 = normal movement). Additionally, differential uptake of propidium iodide (PI, P1304MP, Sigma-Aldrich, UK) was used to quantify worm viability as previously described. In brief, after 15 min incubation with 2 μg/ml PI, the parasite cultures were imaged under both bright-field and fluorescent settings (PI detection, 562 and 624 excitation and emission wavelengths, respectively) using an ImageXpressXL high content imager (Molecular Devices, UK). Enumeration of PI positive and negative juvenile worms was manually performed across all parasites within the well and the percentage of PI positive parasite was calculated per well.

S. mansoni adult worms [3] = assay: S. mansoni adult worm motility screen (WormassayGP2), 72 h; assay type: cell-based, Schistosoma mansoni
In short: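 Seven-week adult S. mansoni worms, perfused from infected mice, were exposed in duplicate (1–3 pairs/well) to […] compound in 0.5% DMSO for 72 h at 37 °C, 5% CO2. Motility was scored by image-based WormassayGP2, and eggs were counted afterwards.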

S. mansoni adult worms [4] = assay: In vitro laid egg (IVLE) production by S. mansoni adult worm pairs, 72 h; assay type: cell-based, Schistosoma mansoni
Description: For the evaluation of anti-schistosomal activity on the adult stage of the parasite, 7-wk old worms were transferred into 48 well tissue culture plates (1–3 worm pairs/well, in duplicate). […] DMSO (0.5%) and praziquantel (10 μM in 0.5% DMSO) were also included as negative and positive control treatments. Treated adult worms were incubated for 72 h in a humidified environment containing 5% CO2 at 37 °C. Parasite motility after compound treatment was assessed by a digital image processing-based system (WormassayGP2), modified after Wormassay. Following compound-parasite co-incubation, eggs were collected, fixed in formalin (10% v/v formaldehyde) and enumerated aiming to collect further information on any compound-induced effects on parasite fecundity and IVLE production.

S. mansoni [5] = tested on: S. mansoni; set-up: method as in PMID 24416463; settings: cited from earlier work
S. mansoni [6] = tested on: S. mansoni; set-up: method as in PMID 24416463; settings: cited from earlier work; remark: listed apart in the source
[7] = Schistosoma mansoni, 72 h, Table 1, 72 h, two dose response titrations (0.313–10 μM), 95% CI in brackets, read-out: Activity on schistosomula (EC50, μM - 72 h) Motility
[8] = Schistosoma mansoni, 72 h, Table 1, 72 h, two dose response titrations (0.313–10 μM), 95% CI in brackets, read-out: Activity on schistosomula (EC50, μM - 72 h) Phenotype
[9] = Table 2, average of phenotype and motility EC50, 72 h, read-out: Activity on schistosomula (EC50, μM - 72 h) Average
[10] = Table 2, motility, 72 h, three replicate titrations (0.313–10 μM), read-out: Activity on schistosomula (EC50, μM - 72 h) M
[11] = Table 2, phenotype, 72 h, three replicate titrations (0.313–10 μM), read-out: Activity on schistosomula (EC50, μM - 72 h) P
[12] = Schistosoma mansoni, 72 h, Table 1, mean of phenotype and motility EC50, 72 h, read-out: Activity on schistosomula (EC50, μM - 72 h) Average
[13] = Schistosoma mansoni, Table 2, 72 h, titrations 0.0095–5 μM, WormassayGP2, read-out: Activity on adult worms (EC50, μM - 72 h) Motility
[14] = Schistosoma mansoni, 72 h, Table 2, average of phenotype and motility EC50, 72 h, read-out: Activity on schistosomula (EC50, μM - 72 h) Average
[15] = Schistosoma mansoni, 72 h, Table 2, motility, 72 h, three replicate titrations (0.313–10 μM), read-out: Activity on schistosomula (EC50, μM - 72 h) M
[16] = Schistosoma mansoni, 72 h, Table 2, phenotype, 72 h, three replicate titrations (0.313–10 μM), read-out: Activity on schistosomula (EC50, μM - 72 h) P

O=[N+]([O-])c1ccc2nc(-c3ccc(F)cc3)c(-c3ccc(F)cc3)nc2c1 [Compound 21]
EC50 (S. mansoni schistosomula; [7]): > 50 µM | EC50 (S. mansoni schistosomula; [8]): > 50 µM | Effect on phenotype and motility of S. mansoni schistosomula (S. mansoni schistosomula; primary tested concentrations 10 and 50 μM, 72 h): did not have any effect | CC50 at 24 h [1]: 6 to 20 µM

CC(=O)OC[C@H]1O[C@@H]([S-])[C@H](OC(C)=O)[C@@H](OC(C)=O)[C@@H]1OC(C)=O.CCP(CC)CC.[Au+] [AUR, Auranofin, reference compound]
EC50 (S. mansoni schistosomula; Table 1, 72 h, two dose response titrations (0.313–10 μM), 95% CI in brackets, read-out: Activity on schistosomula (EC50, μM - 72 h) Motility): 0.45 µM | EC50 (S. mansoni schistosomula; Table 1, mean of phenotype and motility EC50, 72 h, read-out: Activity on schistosomula (EC50, μM - 72 h) Average): 0.41 µM | EC50 (S. mansoni schistosomula; [9]): 0.41 µM | EC50 (S. mansoni schistosomula; [10]): 0.45 µM | EC50 (S. mansoni schistosomula; [11]): 0.37 µM | CC50 (HepG2 cells; read-out: HepG2 cells (CC50, μM) 24 h, 24 h co-incubation): 5.07 µM | CC50 (HepG2 cells; read-out: HepG2 cells (CC50, μM) 72 h, 72 h co-incubation): 2.94 µM | PI pos [2]: 0%

c1ccc(/N=c2\sc3ccccc3s\c2=N\c2ccccc2)cc1 [Compound 1]
Adult worm motility at 6.25 μM (S. mansoni adult worms [3]; 6.25 μM, 72 h): normal motility | Effect on adult male and female worm pairs at 50 and 25 μM (S. mansoni adult worms [3]; 50 and 25 μM, 72 h): lethal effect | Activity on schistosomula in the primary screen at 10 μM (S. mansoni schistosomula; 72 h): hit | Activity on schistosomula in the primary screen at 50 μM (S. mansoni schistosomula; 50 μM, 72 h): hit | EC50 (S. mansoni schistosomula; [7]): 4.47 µM | EC50 (S. mansoni schistosomula; [8]): 4.72 µM | EC50 (S. mansoni schistosomula; [12]): 4.59 µM | EC50 (S. mansoni schistosomula; Schistosoma mansoni, Fig. S3, average schistosomula EC50, read-out: EC50 (Fig. S3, anti-schistosomula activity)): 4.41 µM | Concentration down to which activity on schistosomula was retained (S. mansoni schistosomula; dose-response titration, 72 h): 5 µM | Concentration up until which production of in vitro laid eggs (IVLEs) was significantly inhibited (S. mansoni adult worms [4]; titration 50–6.25 μM): 12.5 µM

N2, N3-bis(4-bromophenyl)quinoxaline-2,3-diamine [Compound 38, reference compound]
EC50 (S. mansoni adult worms [3]; Table 2, 72 h, titrations 0.0095–5 μM, WormassayGP2, read-out: Activity on adult worms (EC50, μM - 72 h) Motility): 0.162 µM | EC50 (S. mansoni schistosomula; 72 h, read-out: EC50 on schistosomula (bounds and ranges given)): > 2 µM | EC50 (S. mansoni schistosomula; [9]): 2.44 µM | EC50 (S. mansoni schistosomula; [10]): 1.21 µM | EC50 (S. mansoni schistosomula; [11]): 3.67 µM | Worm burden reduction (S. mansoni [5]; four per oral doses of 100 mg/kg, delivered every 4 h): 53.4% | Worm burden reduction (S. mansoni [5]; single per oral dose of 400 mg/kg): 40.8% | In vitro activity on S. mansoni (S. mansoni [6]): sub micromolar range

O=C(C1CCCCC1)N1CC(=O)N2CCc3ccccc3C2C1 (stereo not drawn) [PZQ, praziquantel, reference compound]
EC50 (S. mansoni adult worms [3]; [13]): 0.107 µM | EC50 (S. mansoni schistosomula; [7]): 0.88 µM | EC50 (S. mansoni schistosomula; [8]): 1.14 µM | EC50 (S. mansoni schistosomula; [12]): 1.01 µM | EC50 (S. mansoni schistosomula; [14]): 1.01 µM | EC50 (S. mansoni schistosomula; [15]): 0.88 µM | EC50 (S. mansoni schistosomula; [16]): 1.14 µM | Selectivity Index (SI) Adult worms (HepG2 cells; HepG2 CC50 versus adult worm EC50): 945.31 | Selectivity Index (SI) Somula (HepG2 cells; HepG2 CC50 versus schistosomula EC50): 100.05 | PI pos [2]: 100%

O=[N+]([O-])c1ccc2nc(Nc3cc(F)cc(C(F)(F)F)c3)c(Nc3cc(F)cc(C(F)(F)F)c3)nc2c1 [Compound 34, N2, N3-bis(3-fluoro-5-(trifluoromethyl)phenyl)-6-nitroquinoxaline-2,3-diamine]
EC50 (S. mansoni adult worms [3]; Schistosoma mansoni, Table 4, Series A, read-out: Anti-schistosomal activity EC50 Adult (nM) Motility): 0.00647 µM | EC50 (S. mansoni adult worms [3]; [13]): 0.00647 µM | EC50 (S. mansoni schistosomula; [14]): 0.4 µM | EC50 (S. mansoni schistosomula; [15]): 0.43 µM | EC50 (S. mansoni schistosomula; [16]): 0.37 µM | EC50 (S. mansoni schistosomula; Schistosoma mansoni, Table 4, Series A, read-out: Anti-schistosomal activity EC50 Schistosomula (μM) Motility): 0.43 µM | EC50 (S. mansoni schistosomula; Schistosoma mansoni, Table 4, Series A, read-out: Anti-schistosomal activity EC50 Schistosomula (μM) Phenotype): 0.37 µM | Effect on IVLE production compared with PZQ (S. mansoni adult worms [4]; 0.0024–10 μM): more potent than PZQ

O=[N+]([O-])c1ccc2nc(Nc3ccccc3)c(Nc3ccccc3)nc2c1 [Compound 19]
Effect on adult worm motility at 3.15 μM (S. mansoni adult worms [3]; 3.15 μM, lowest concentration tested): complete cessation of worm mobility | Effect on adult worm motility at 12.5 and 6.25 μM (S. mansoni adult worms [3]; 12.5 and 6.25 μM): particularly active | Activity on schistosomula in the primary screen at 10 μM (S. mansoni schistosomula; 72 h): retained activity | EC50 (S. mansoni schistosomula; [7]): 1.35 µM | EC50 (S. mansoni schistosomula; [8]): 1.89 µM | EC50 (S. mansoni schistosomula; [12]): 1.62 µM | EC50 (S. mansoni schistosomula; Schistosoma mansoni, Table 3, read-out: Anti-schistosomal activity EC50 (μM) Schistosomula Motility): 1.35 µM | EC50 (S. mansoni schistosomula; Schistosoma mansoni, Table 3, read-out: Anti-schistosomal activity EC50 (μM) Schistosomula Phenotype): 1.89 µM | CC50 at 24 h [1]: 12.6 µM
